For 6 compounds, IC50 results are on record in BindingDB's records for doi:10.1016/j.bmc.2019.115125 (Duquesne University, 2019).

What is called IC50 is the point on the concentration scale where inhibition reaches its midpoint.

Molecules are shown by their SMILES.

The first assay can be described thus: Binding affinity to human RFC expressed in Chinese hamster PC43-10 cells assessed as antiproliferative activity measured as reduction in cell growth after 96 hrs by Cell-Titer Blue assay.
For `CN(Cc1cc2c(=O)[nH]c(N)nc2[nH]1)C(=O)c1cccc(C(=O)N[C@@H](CCC(=O)O)C(=O)O)c1`, the IC50 is > 1 µM.

Turning to `CN(Cc1cc2c(=O)[nH]c(N)nc2[nH]1)C(=O)c1ccc(C(=O)N[C@@H](CCC(=O)O)C(=O)O)s1`, the IC50 is > 1 µM.

Consider `CN(Cc1cc2c(=O)[nH]c(N)nc2[nH]1)C(=O)c1csc(C(=O)N[C@@H](CCC(=O)O)C(=O)O)c1`, for which the IC50 is > 1 µM.

For `CN(Cc1cc2c(=O)[nH]c(N)nc2[nH]1)S(=O)(=O)c1ccc(C(=O)N[C@@H](CCC(=O)O)C(=O)O)cc1`, the IC50 is > 1 µM.

For `CN(Cc1cc2c(=O)[nH]c(N)nc2[nH]1)C(=O)c1ccc(C(=O)N[C@@H](CCC(=O)O)C(=O)O)cc1`, the IC50 was > 1 µM.

In the case of `CN(Cc1cc2c(=O)[nH]c(N)nc2[nH]1)C(=O)c1cc(C(=O)N[C@@H](CCC(=O)O)C(=O)O)cs1`, the IC50 was > 1 µM.

Another assay is described as follows: Binding affinity to human FRalpha expressed in Chinese hamster RT16 cells assessed as antiproliferative activity measured as reduction in cell growth after 96 hrs by Cell-Titer Blue assay.
Regarding `CN(Cc1cc2c(=O)[nH]c(N)nc2[nH]1)C(=O)c1cccc(C(=O)N[C@@H](CCC(=O)O)C(=O)O)c1`, the IC50 was 0.0018 µM.

As to `CN(Cc1cc2c(=O)[nH]c(N)nc2[nH]1)C(=O)c1ccc(C(=O)N[C@@H](CCC(=O)O)C(=O)O)s1`, the IC50 was 0.0078 µM.

With `CN(Cc1cc2c(=O)[nH]c(N)nc2[nH]1)C(=O)c1csc(C(=O)N[C@@H](CCC(=O)O)C(=O)O)c1`, the half-maximal inhibitory concentration (IC50) was > 1 µM.

Consider `CN(Cc1cc2c(=O)[nH]c(N)nc2[nH]1)S(=O)(=O)c1ccc(C(=O)N[C@@H](CCC(=O)O)C(=O)O)cc1`, for which the IC50 was > 1 µM.

As to `CN(Cc1cc2c(=O)[nH]c(N)nc2[nH]1)C(=O)c1cc(C(=O)N[C@@H](CCC(=O)O)C(=O)O)cs1`, the IC50 stood at 0.867 µM.

A further assay can be described thus: Binding affinity to human PCFT expressed in Chinese hamster R2/PCFT4 cells assessed as antiproliferative activity measured as reduction in cell growth after 96 hrs by Cell-Titer Blue assay.
Consider `CN(Cc1cc2c(=O)[nH]c(N)nc2[nH]1)C(=O)c1cccc(C(=O)N[C@@H](CCC(=O)O)C(=O)O)c1`, for which the IC50 was 0.747 µM.

With `CN(Cc1cc2c(=O)[nH]c(N)nc2[nH]1)C(=O)c1ccc(C(=O)N[C@@H](CCC(=O)O)C(=O)O)s1`, the IC50 is > 1 µM.

With `CN(Cc1cc2c(=O)[nH]c(N)nc2[nH]1)C(=O)c1csc(C(=O)N[C@@H](CCC(=O)O)C(=O)O)c1`, the IC50 was > 1 µM.

In the case of `CN(Cc1cc2c(=O)[nH]c(N)nc2[nH]1)S(=O)(=O)c1ccc(C(=O)N[C@@H](CCC(=O)O)C(=O)O)cc1`, the IC50 is > 1 µM.

With `CN(Cc1cc2c(=O)[nH]c(N)nc2[nH]1)C(=O)c1ccc(C(=O)N[C@@H](CCC(=O)O)C(=O)O)cc1`, the IC50 was 0.049 µM.

On to `CN(Cc1cc2c(=O)[nH]c(N)nc2[nH]1)C(=O)c1cc(C(=O)N[C@@H](CCC(=O)O)C(=O)O)cs1`, for which the IC50 was > 1 µM.
